Measured values taken from publication PMC8531085, “Proton Pump Inhibitors Inhibit PHOSPHO1 Activity and Matrix Mineralisation In Vitro” (Calcified Tissue International, 2021).
Where “and” joins values, the source holds several entries; their conditions need not be identical. Identical values can stand only once. Entries after “also recorded” stand apart in the source; their conditions may differ.

Tests used:
[1] = molecular target: T1, Recombinant human PHOSPHO1 (Homo sapiens, UniProt Q8TCT1); assay: PHOSPHO1 phosphatase assay (BIOMOL Green, β-glycerol phosphate); assay type: biochemical; conditions: for Inhibition of PHOSPHO1 activity (in words): all concentrations tested (0-100 µM); for IC50: recombinant human PHOSPHO1 50 ng, 0-100 µM, 2.5 mM β-glycerol phosphate, read-out: IC50, inhibition of PHOSPHO1 activity
T1 construct: made in house
T1 sequence (Q8TCT1 1-267): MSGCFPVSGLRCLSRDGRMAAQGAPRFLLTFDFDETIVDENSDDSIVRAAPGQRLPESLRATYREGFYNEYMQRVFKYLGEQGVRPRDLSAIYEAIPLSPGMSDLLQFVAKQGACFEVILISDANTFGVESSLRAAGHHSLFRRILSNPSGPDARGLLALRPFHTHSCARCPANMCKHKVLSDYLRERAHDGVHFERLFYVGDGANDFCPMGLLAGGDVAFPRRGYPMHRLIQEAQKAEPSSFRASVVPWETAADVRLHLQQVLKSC
Method: Recombinant human PHOSPHO1 (50 ng) was generated as previously described and incubated with varying concentrations of the aforementioned PPIs and […] in experimental assay buffer (20 mM Tris, 2 mM MgCl2 & 25 μg/ml BSA) at 37 °C for 15 min. Using the BIOMOL® Green assay (Enzo, Exeter, UK), standards (0-2 nM) and samples were then incubated with 2.5 mM β-glycerol phosphate for 30 min at 37 °C with gentle agitation. The reaction was stopped using 100 μl BIOMOL® Green and after being left for 30 min at room temperature, the absorbance was read using spectrophotometry at 630 nm. […] Using the BIOMOL® Green assay, standards (0-2 nM) and samples were then incubated with 0.5 mM p-nitrophenyl phosphate (pNPP) for 30 min at 37 °C with gentle agitation. The reaction was stopped using 100 μl BIOMOL® Green and after being left for 30 min at room temperature, the absorbance was read using spectrophotometry at 630 nm.

[2] = system: healthy subjects; conditions: short-term treatment; cited from earlier work
[3] = system: osteoblasts; design: method as in PMID 23937530; conditions: cited from earlier work
[4] = molecular target: T2, recombinant human TNAP (Homo sapiens, UniProt P05186); assay: TNAP phosphatase assay (BIOMOL Green, pNPP); assay type: biochemical; conditions: all concentrations tested (0-100 µM)
T2 construct: purchased R&D Systems
T2 sequence (P05186 18-524): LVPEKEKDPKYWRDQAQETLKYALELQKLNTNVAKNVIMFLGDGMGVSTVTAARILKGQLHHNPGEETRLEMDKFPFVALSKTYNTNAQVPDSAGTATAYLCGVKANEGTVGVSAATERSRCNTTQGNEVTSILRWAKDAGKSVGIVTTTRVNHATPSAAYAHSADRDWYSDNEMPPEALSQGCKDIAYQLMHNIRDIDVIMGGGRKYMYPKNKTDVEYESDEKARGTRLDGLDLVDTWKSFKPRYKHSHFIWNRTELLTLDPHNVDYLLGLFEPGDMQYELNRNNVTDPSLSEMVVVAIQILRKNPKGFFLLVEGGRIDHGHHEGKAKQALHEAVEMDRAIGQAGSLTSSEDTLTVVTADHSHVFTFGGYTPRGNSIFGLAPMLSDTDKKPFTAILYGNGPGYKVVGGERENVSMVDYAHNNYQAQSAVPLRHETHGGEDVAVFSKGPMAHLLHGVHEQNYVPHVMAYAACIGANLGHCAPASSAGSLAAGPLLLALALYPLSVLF
Method: Recombinant human PHOSPHO1 (50 ng) was generated as previously described and incubated with varying concentrations of the aforementioned PPIs and H2RAs in experimental assay buffer (20 mM Tris, 2 mM MgCl2 & 25 µg/ml BSA) at 37 °C for 15 min. Using the BIOMOL® Green assay (Enzo, Exeter, UK), standards (0-2 nM) and samples were then incubated with 2.5 mM β-glycerol phosphate for 30 min at 37 °C with gentle agitation. The reaction was stopped using 100 µl BIOMOL® Green and after being left for 30 min at room temperature, the absorbance was read using spectrophotometry at 630 nm. For TNAP, 2 ng recombinant human TNAP (R&D Systems, Abington, UK), was incubated with varying concentrations of the aforementioned PPIs and H2RAs in experimental assay buffer (1 M diethylamine hydrochloride, 1 mM MgCl2 and 20 µM ZnCl2). Using the BIOMOL® Green assay, standards (0-2 nM) and samples were then incubated with 0.5 mM p-nitrophenyl phosphate (pNPP) for 30 min at 37 °C with gentle agitation. The reaction was stopped using 100 µl BIOMOL® Green and after being left for 30 min at room temperature, the absorbance was read using spectrophotometry at 630 nm.

[5] = system: rodents; design: method as in PMID 11589371, PMID 26229922; conditions: rodents administered the drug; cited from earlier work
[6] = system: Primary calvarial osteoblasts; assay: Primary osteoblast matrix mineralisation (Alizarin red, 28 days); assay type: cell-based, mice
Method: Primary calvarial osteoblasts were obtained from 4-day-old wild-type C57Bl/6 mice. Primary osteoblasts were isolated by sequential enzyme digestion of excised calvarial bones using a four-step process as has previously been described [1 mg/ml collagenase type II in Hanks’ balanced salt solution (HBSS) for 10 min; 1 mg/ml collagenase type II in HBSS for 30 min; 4 mM EDTA for 10 min; 1 mg/ml collagenase type II in HBSS for 30 min]. The first digest was discarded and the cells were re-suspended in growth medium consisting of a-MEM (Invitrogen, Paisley, UK) supplemented with 10% (v/v) FBS and 1% gentamycin (Invitrogen). Osteoblasts were seeded at a density of 1 × 10^4 cells/cm^2 and grown to confluency at which point 2 mM β-glycerophosphate and 50 µg/ml ascorbic acid was added along with a PPI (0–50 µM) as described in the results. Media was changed every 2–3 days for the duration of the 28-day experiments. After 28 days, primary cell cultures were fixed in 4% paraformaldehyde for 5 min at room temperature. Cell monolayers were stained with aqueous 2% (w/v) Alizarin red solution for 5 min at room temperature. The bound stain was solubilised in 10% cetylpyridinium chloride and the optical density of the resultant eluted solution measured by spectrophotometry at 570 nm.

[7] = system: tissue non-specific alkaline phosphatase (TNAP); design: method as in PMID 17227223; conditions: cited from earlier work
[8] = molecular target: T1, Recombinant human PHOSPHO1; design: method as in PMID 17227223; conditions: non-competitive; cited from earlier work
[9] = system: developing chick embryos; design: method as in PMID 20053388; conditions: administration to developing chick embryos; cited from earlier work
[10] = system: osteoblast MV; conditions: cited from earlier work

CNC(=C[N+](=O)[O-])NCCSCc1csc(CN(C)C)n1 [nizatidine]
Inhibition of PHOSPHO1 activity (in words) [1]: no inhibitory effects; also recorded: no inhibition

CNC(=C[N+](=O)[O-])NCCSCc1ccc(CN(C)C)o1 [ranitidine]
Inhibition of PHOSPHO1 activity (in words) [1]: no inhibitory effects; also recorded: no inhibition

CN/C(=N/CCSCc1nc[nH]c1C)NC#N [cimetidine]
Inhibition of PHOSPHO1 activity (in words) [1]: no inhibitory effects; also recorded: no inhibition

COc1ccc2[nH]c([S+]([O-])Cc3ncc(C)c(OC)c3C)nc2c1 (centres unmarked) [omeprazole]
Effect on calcium absorption [2]: not found to have inhibitory effects | IC50 [1]: 2800 nM | Ability of osteoblasts to mineralise their matrix [3]: decreased the ability of osteoblasts to mineralise their matrix | Inhibition of TNAP activity (in words) [4]: did not inhibit | Bone mineral content and BMD [5]: reduced bone mineral content and BMD | Matrix mineralisation (Alizarin red) ([6]; 10 µM): significantly inhibited matrix mineralisation

COc1ccnc(C[S+]([O-])c2nc3ccc(OC(F)F)cc3[nH]2)c1OC (centres unmarked) [pantoprazole]
IC50 [1]: 19300 nM | Inhibition of TNAP activity (in words) [4]: did not inhibit | Matrix mineralisation (Alizarin red) ([6]; 5 µM): not sufficient to inhibit matrix mineralisation | Matrix mineralisation (Alizarin red) ([6]; 10 µM): not sufficient to inhibit matrix mineralisation | Matrix mineralisation (Alizarin red) ([6]; 50 µM): significant decrease in matrix mineralisation

Cc1c(OCC(F)(F)F)ccnc1C[S+]([O-])c1nc2ccccc2[nH]1 (centres unmarked) [lansoprazole]
Effect on TNAP activity [7]: no effect | Inhibition of recombinant human PHOSPHO1 activity [8]: over 70% | IC50 [1]: 2770 nM | Mineralisation of leg and wing long bones [9]: completely inhibited mineralisation | Ability of osteoblasts to mineralise their matrix [3]: decreased the ability of osteoblasts to mineralise their matrix | Inhibition of osteoblast MV calcification [10]: 57% | Mineralisation of MVs isolated from osteoblasts [10]: impairs their mineralisation | Inhibition of TNAP activity (in words) [4]: did not inhibit | Matrix mineralisation (Alizarin red) ([6]; 5 µM): significantly decreased matrix mineralisation | Matrix mineralisation (Alizarin red) ([6]; 10 µM): significantly decreased matrix mineralisation

NC(N)=Nc1nc(CSCCC(N)=NS(N)(=O)=O)cs1 [famotidine]
Inhibition of PHOSPHO1 activity (in words) [1]: no inhibitory effects; also recorded: no inhibition

COc1ccc2nc([S@@+]([O-])Cc3ncc(C)c(OC)c3C)[nH]c2c1 [esomeprazole]
IC50 [1]: 730 nM and 726 nM | Ability of osteoblasts to mineralise their matrix [3]: decreased the ability of osteoblasts to mineralise their matrix | Inhibition of TNAP activity (in words) [4]: did not inhibit | Matrix mineralisation (Alizarin red) ([6]; 10 µM): significantly inhibited matrix mineralisation
